Our source for the Virus reduction and Sample titer values is patent US11672814B2, “NGNA compositions and methods of use” (priority 2008, dated 2023).

Like-named read-outs stand apart in the source and are kept apart here.

Test [1] concerns Influenza B virus B/Malaysia/2506/2004. The format is cell-based. As to conditions: 10 minutes, MDCK.
Test [2] has as its system HSV-1, SC-16. Nature of the test: Virucidal assay, HSV-1 titrated on Vero cells (CPE readout). In kind it is cell-based, Herpes Simplex Virus type 1. As to conditions: 10 minutes; for Sample titer: control virus titer 6.25.
The subject of test [3] is HRV-16. Nature of the test: Virucidal assay, Rhinovirus titrated on Wi-38 cells (CPE readout). The format is cell-based, Human Rhinovirus. As to conditions: 10 minutes.
In test [4] the test system is Feline Calicivirus (FCV). Nature of the test: Virucidal assay, Norovirus surrogate virus titrated on CRFK cells (CPE readout). In kind it is cell-based. As to conditions: 10 minutes.

Consider `O=C(CO)N[C@H]1[C@H]([C@H](O)[C@H](O)CO)O[C@](O)(C(=O)O)C[C@@H]1O` [NGNA, n-glycolylneuraminic acid], for which the Virus reduction in test [1] (NGNA 10 nM) was determined as 0.00%; in test [1] (NGNA 10 μM) it was 0.00%; in test [1] (NGNA 10 mM) it was 99.00%; in test [2] (NGNA 10 nM), 0.00%; in test [2] (NGNA 10 μM), 0.00%; in test [2] (NGNA 10 mM), 99.98%. For the same compound, the Virus reduction in test [3] (NGNA 10 nM) came out at 90.00%; in test [3] (NGNA 10 μM), 90.00%; in test [3] (NGNA 10 mM), 99.44%; in test [4] (NGNA 10 nM) it was 0.00%; in test [4] (NGNA 10 μM), 0.00%; in test [4] (NGNA 10 mM) it was 82.21%. The Sample titer in test [2] (NGNA 10 nM) was 7.00 log10 TCID50/ml; in test [2] (NGNA 10 μM) it was 6.25 log10 TCID50/ml; in test [2] (NGNA 10 mM), 2.50 log10 TCID50/ml; in test [3] (NGNA 10 nM, control virus titer 4.50), 3.50 log10 TCID50/ml; in test [3] (NGNA 10 μM, control virus titer 4.50), 3.50 log10 TCID50/ml; in test [3] (NGNA 10 mM, control virus titer 4.75), 2.50 log10 TCID50/ml. The Sample titer in test [4] (NGNA 10 nM, control virus titer 5.50) is 5.50 log10 TCID50/ml; in test [4] (NGNA 10 μM, control virus titer 5.50), 5.50 log10 TCID50/ml; in test [4] (NGNA 10 mM, control virus titer 5.25), 4.50 log10 TCID50/ml.
